This is an account of results in patent US20110269815A1, “METHODS OF REDUCING CELLULAR PROLIFERATION BY INHIBITING ACSVL3” (THE JOHNS HOPKINS UNIVERSITY, priority 2008, published 2011).

For data set [1], the target named is ACSL4 (Rattus norvegicus, UniProt O35547). The following applies: cited from earlier work.
The test system of data set [2] is brain (SF268) cancer cell line. The following applies: cited from earlier work.
The target of data set [3] is ACSVL1 (FATP2) (Homo sapiens, UniProt O14975). Particulars: cited from earlier work.
Chain of ACSVL1 (FATP2) (O14975 whole entry): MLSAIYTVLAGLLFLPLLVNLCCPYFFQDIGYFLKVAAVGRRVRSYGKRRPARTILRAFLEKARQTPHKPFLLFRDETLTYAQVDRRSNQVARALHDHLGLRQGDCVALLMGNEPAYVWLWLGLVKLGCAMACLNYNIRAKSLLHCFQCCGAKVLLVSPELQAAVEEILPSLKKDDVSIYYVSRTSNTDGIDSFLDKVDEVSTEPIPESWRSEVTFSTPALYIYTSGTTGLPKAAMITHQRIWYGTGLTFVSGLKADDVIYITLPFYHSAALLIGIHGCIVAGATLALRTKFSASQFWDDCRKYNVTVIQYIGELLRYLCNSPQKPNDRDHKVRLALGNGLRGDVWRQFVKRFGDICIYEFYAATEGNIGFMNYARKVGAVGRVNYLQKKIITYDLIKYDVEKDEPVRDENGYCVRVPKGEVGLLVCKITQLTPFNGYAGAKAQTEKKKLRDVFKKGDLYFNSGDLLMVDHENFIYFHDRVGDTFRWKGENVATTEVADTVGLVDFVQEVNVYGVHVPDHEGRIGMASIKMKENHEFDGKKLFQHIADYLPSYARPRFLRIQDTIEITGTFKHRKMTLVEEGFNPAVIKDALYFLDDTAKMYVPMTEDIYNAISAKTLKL
Data set [4] relates to colon (HCT-15) cancer cell line. The following applies: cited from earlier work.
Data set [5] addresses T1, ACSBG2 (Homo sapiens, UniProt Q5FVE4).
T1 sequence (Q5FVE4 1-666): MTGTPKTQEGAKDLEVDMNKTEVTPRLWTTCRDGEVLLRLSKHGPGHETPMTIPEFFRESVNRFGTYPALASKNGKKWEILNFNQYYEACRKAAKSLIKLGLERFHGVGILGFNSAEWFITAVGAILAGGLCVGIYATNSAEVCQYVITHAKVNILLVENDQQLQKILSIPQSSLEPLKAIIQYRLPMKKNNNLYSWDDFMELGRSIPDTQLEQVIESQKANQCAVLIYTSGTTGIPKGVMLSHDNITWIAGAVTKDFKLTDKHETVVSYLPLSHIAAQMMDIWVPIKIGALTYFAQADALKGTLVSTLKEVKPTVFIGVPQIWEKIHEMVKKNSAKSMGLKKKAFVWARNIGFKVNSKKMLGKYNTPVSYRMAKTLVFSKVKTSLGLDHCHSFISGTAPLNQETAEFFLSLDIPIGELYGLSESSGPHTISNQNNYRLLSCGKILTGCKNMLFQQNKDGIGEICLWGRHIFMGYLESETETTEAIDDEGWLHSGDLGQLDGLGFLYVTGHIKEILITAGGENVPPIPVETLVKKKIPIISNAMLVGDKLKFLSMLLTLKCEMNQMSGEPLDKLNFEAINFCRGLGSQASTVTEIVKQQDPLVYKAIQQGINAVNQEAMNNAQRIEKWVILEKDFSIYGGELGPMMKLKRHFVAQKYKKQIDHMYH
The following applies: cited from earlier work.

The target in data set [6] is T2, ACSL1 (Rattus norvegicus, UniProt P18163).
T2 sequence (P18163 1-699): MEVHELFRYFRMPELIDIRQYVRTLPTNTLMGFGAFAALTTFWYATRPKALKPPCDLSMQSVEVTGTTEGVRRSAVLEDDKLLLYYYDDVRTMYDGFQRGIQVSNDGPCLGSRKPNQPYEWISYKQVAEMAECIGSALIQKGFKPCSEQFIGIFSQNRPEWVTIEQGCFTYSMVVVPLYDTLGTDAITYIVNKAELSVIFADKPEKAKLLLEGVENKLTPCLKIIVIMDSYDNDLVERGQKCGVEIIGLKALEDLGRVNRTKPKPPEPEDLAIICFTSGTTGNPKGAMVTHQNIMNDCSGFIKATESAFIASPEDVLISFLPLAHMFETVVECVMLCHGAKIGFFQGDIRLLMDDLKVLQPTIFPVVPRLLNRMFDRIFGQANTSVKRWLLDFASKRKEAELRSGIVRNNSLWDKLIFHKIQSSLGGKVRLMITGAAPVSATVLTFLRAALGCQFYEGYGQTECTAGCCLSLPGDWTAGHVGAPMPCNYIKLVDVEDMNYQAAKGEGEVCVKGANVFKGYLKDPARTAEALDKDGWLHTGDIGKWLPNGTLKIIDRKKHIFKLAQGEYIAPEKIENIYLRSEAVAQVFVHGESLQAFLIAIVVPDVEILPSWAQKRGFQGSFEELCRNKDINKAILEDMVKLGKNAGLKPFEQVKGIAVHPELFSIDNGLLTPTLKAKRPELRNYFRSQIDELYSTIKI
The following applies: cited from earlier work.

Data set [7] deals with lung (NCI-H23) cancer cell line. Particulars: cited from earlier work.
Data set [8] has as its target ACSVL5 (FATP4) (Mus musculus, UniProt Q91VE0). The following applies: cited from earlier work.
Data set [9] has as its target T3, ACSL6 (Rattus norvegicus, UniProt P33124).
T3 sequence (P33124 1-697): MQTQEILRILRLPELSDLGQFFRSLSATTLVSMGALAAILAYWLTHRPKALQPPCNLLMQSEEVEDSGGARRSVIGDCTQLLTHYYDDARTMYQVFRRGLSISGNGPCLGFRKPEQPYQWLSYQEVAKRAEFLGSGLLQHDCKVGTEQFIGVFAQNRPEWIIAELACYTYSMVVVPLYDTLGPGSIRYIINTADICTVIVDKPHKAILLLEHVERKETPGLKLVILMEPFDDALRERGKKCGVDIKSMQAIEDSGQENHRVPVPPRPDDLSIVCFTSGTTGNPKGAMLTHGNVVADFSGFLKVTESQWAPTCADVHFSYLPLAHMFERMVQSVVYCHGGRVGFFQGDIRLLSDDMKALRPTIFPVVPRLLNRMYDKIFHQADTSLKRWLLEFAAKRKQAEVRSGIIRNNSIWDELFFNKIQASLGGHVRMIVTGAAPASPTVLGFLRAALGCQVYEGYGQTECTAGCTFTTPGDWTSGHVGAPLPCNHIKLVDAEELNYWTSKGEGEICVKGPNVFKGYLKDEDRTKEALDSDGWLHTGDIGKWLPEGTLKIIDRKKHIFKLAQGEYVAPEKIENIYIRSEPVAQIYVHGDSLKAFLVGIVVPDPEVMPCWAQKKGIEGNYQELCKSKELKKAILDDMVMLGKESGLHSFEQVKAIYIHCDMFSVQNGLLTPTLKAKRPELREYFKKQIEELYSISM
Particulars: cited from earlier work.

Data set [10] has as its target T4, ACSL5 (Rattus norvegicus, UniProt O88813).
T4 sequence (O88813 1-683): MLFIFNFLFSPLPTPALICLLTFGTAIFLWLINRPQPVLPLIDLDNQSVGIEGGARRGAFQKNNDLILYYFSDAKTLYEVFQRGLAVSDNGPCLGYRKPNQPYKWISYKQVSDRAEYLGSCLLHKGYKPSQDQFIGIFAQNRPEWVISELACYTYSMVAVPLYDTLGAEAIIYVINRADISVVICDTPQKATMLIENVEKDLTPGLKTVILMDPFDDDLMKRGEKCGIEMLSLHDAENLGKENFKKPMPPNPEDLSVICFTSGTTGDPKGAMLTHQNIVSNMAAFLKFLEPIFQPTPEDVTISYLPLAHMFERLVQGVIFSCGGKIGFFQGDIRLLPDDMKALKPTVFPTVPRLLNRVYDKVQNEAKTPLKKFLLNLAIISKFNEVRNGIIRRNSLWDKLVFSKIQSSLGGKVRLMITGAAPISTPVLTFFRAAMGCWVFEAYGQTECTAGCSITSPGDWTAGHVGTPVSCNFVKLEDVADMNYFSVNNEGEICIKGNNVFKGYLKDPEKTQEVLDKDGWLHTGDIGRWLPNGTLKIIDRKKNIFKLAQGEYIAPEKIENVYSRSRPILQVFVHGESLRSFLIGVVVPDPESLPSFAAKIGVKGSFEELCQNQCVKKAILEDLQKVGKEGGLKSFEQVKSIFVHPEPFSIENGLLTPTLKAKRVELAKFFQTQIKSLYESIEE
The following applies: cited from earlier work.

Data set [11] relates to cardiolipin. Particulars: cited from earlier work.
The target in data set [12] is ACSL3 (Rattus norvegicus, UniProt Q63151). Particulars: cited from earlier work.
Chain of ACSL3 (Q63151 whole entry): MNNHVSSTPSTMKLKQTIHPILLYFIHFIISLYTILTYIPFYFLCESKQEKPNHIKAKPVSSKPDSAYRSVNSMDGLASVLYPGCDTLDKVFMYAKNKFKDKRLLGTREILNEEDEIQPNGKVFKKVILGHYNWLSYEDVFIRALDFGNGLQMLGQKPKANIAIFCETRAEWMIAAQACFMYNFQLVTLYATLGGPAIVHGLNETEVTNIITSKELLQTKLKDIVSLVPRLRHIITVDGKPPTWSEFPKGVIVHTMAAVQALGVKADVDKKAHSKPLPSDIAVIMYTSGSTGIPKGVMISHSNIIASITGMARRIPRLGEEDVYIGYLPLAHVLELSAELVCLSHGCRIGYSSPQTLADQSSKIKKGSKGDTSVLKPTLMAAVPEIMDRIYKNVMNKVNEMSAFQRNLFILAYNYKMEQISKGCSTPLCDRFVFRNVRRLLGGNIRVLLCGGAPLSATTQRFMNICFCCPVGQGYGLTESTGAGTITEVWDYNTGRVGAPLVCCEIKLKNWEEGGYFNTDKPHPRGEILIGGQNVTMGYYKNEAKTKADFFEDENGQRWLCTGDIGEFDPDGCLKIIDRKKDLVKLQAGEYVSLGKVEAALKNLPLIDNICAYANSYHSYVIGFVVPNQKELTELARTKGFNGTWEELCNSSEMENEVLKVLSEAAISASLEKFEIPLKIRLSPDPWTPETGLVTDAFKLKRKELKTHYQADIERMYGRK
The subject of data set [13] is ACSVL3 mRNA. As to the kind of experiment: Transient ACSVL3 KD in U87 cells, ACSVL3 expression by immunofluorescence and Western blot. It is filed as cell-based, human. The following applies: day 3 post-transfection, indirect immunofluorescence and Western blot. The method, then: Transient ACSVL3 KD. Four different small interfering RNA (siRNA) constructs targeting different regions of ACSVL3 mRNA were produced using the pSilencer™ kit (Applied Biosystems/Ambion; Austin Tex.). U87 cells were transfected with each construct using siPORT™ Lipid reagent (Applied Biosystems/Ambion). ACSVL3 expression was assessed on day 3 post-transfection by indirect immunofluorescence and Western blot and found to be decreased by siRNA ACSVL3-3 and -4, but not -1 or -2 (data not shown). siRNA ACSVL3-3 (5′-CACGGCTCGCGGCGCTTTA-3′ (SEQ ID NO: 1)) targets by 394-412 of ACSVL3 mRNA and ACSVL3-4 (5′-CGTCTATGGAGTCACTGTG-3′ (SEQ ID NO: 2)) targets by 1861-1879. Transient ACSVL3 KD in Mayo-22 cells was achieved by transfection with ACSVL3-3 using siPORT™ Lipid reagent. Control cells received siRNA with a scrambled nucleotide sequence (supplied by Ambion).
Immunohistochemistry, immunofluorescence, and Western blotting. […] ACSVL3 was detected on Western blots with SuperSignal West Pico chemiluminescent substrate (Pierce Biotechnology, Rockford Ill.). Total and phospho-Akt (ser473) were detected with antibodies from BD Biosciences (San Jose Calif.) and Cell Signaling Technology (Danvers Mass.), respectively, and quantitated with the LiCOR Odyssey dual wavelength infrared system. Protein was determined by the method of Lowry et al. (16).

Chain of ACSVL5 (FATP4) (Q91VE0 whole entry): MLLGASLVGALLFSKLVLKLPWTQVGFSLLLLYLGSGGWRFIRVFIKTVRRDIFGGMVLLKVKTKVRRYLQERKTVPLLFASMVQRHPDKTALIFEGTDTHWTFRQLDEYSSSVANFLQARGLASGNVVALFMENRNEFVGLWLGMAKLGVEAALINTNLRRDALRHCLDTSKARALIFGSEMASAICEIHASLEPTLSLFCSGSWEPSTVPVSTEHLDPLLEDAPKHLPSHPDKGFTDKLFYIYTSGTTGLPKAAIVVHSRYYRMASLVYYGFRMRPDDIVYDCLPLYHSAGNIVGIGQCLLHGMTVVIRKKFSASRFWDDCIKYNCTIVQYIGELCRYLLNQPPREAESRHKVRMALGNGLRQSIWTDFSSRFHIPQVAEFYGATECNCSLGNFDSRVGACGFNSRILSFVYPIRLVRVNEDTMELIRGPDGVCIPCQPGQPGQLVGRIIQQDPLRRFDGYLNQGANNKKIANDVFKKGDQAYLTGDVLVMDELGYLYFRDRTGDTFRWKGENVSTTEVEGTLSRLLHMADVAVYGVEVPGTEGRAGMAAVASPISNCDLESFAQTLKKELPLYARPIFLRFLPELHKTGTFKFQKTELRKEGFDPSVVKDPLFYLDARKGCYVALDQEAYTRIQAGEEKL
Chain of ACSL4 (O35547 whole entry): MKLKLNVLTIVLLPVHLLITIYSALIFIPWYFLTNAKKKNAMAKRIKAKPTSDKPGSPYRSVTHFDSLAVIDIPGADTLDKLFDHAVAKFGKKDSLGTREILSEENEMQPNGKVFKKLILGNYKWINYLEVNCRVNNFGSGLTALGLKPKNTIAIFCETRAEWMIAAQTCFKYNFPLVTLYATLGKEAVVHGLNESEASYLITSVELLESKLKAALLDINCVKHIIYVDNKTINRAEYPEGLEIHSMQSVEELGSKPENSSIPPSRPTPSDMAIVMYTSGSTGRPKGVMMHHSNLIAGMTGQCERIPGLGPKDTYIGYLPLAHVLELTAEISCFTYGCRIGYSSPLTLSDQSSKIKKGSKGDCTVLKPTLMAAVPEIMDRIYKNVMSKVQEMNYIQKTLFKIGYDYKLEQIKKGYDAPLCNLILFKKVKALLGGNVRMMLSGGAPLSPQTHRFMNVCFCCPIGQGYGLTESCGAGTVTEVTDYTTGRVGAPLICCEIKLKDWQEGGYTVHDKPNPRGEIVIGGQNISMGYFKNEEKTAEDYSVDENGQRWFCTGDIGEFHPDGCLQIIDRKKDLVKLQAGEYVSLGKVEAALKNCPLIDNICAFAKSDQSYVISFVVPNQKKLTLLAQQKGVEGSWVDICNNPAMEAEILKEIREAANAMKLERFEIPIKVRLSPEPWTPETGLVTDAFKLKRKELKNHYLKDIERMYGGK

For `CCC/C=C/C/C=C/C=C/C=N/NN=O` [triacsin c], in [1], the “inhibition of ACSL4” value is “inhibits”. For the same compound, the caspase activity entry in [2], in data set [4] and in [7] was “induced caspase activity” in each case. Besides, the “inhibition of ACSVL1 (FATP2)” value in data set [3] is “inhibits”. Besides, the “inhibition of ACSBG2” value in data set [5] is “does not inhibit”. Further, in data set [6], the “inhibition of ACSL1” value is reported as “inhibits”. Besides, the “inhibition of ACSVL5 (FATP4)” value in data set [8] is recorded as “does not inhibit”. The “inhibition of ACSL6” value in data set [9] is listed as “does not inhibit”. Besides, the “inhibition of ACSL5” value in data set [10] is listed as “does not inhibit”. Moreover, the “mitochondrial level of cardiolipin” value in data set [11] is reported as “decreased”. Moreover, the “inhibition of ACSL3” value in [12] is given as “inhibits”.
As for “siRNA ACSVL3-4: siRNA 5′-CGTCTATGGAGTCACTGTG-3′ (SEQ ID NO: 2), targets 1861-1879 of ACSVL3 mRNA (listed as DNA, chemistry not given here)”, the ACSVL3 expression entry in data set [13] is listed as “decreased”.
